From paper PMC4084896 (PLoS ONE, 2014)
Values after ≈ are worked out from the molar mass of the structure shown.

Legend:
[1] = MTT cytotoxicity test in AZ-AHR cells; type: cell-based, human; details: human; 24 h incubation, six passages; read-out: AZ-AHR viability - MTT IC50
Source text: (§1) A stably transfected gene reporter cell line AZ-AHR, derived from human hepatoma HepG2 cells transfected with a construct containing several AhR binding sites upstream of a luciferase reporter gene, was used for assessment of AhR transcriptional activity. A stably transfected gene reporter cell line AZ-GR, derived from human cervix carcinoma HeLa cells transfected with a construct containing several GR response elements upstream of a luciferase reporter gene, was used for assessment of GR transcriptional activity. Cells were incubated for 24 h with tested compounds and/or vehicle (DMSO; 0.1% v/v), in the presence or absence of TCDD (5 nM; AZ-AHR cells) or DEX (100 nM; AZ-GR cells). After the treatments, cells were lysed and luciferase activity was measured. In parallel, cell viability was determined by conventional MTT test.
Prior to the agonist or antagonist experiments, the cytotoxicity of tested compounds was assessed using the conventional MTT assay. […] The vehicle was DMSO (0.1% v/v). After the treatment, a MTT test was performed.

[2] = target: T1, aryl hydrocarbon receptor AhR (Homo sapiens, UniProt P35869); experiment: AhR gene reporter assay in AZ-AHR cells, agonist mode; type: cell-based
T1 construct: endogenous in cells; host or cells: AZ-AHR (stably transfected reporter line derived from HepG2)
T1 sequence (P35869 11-848): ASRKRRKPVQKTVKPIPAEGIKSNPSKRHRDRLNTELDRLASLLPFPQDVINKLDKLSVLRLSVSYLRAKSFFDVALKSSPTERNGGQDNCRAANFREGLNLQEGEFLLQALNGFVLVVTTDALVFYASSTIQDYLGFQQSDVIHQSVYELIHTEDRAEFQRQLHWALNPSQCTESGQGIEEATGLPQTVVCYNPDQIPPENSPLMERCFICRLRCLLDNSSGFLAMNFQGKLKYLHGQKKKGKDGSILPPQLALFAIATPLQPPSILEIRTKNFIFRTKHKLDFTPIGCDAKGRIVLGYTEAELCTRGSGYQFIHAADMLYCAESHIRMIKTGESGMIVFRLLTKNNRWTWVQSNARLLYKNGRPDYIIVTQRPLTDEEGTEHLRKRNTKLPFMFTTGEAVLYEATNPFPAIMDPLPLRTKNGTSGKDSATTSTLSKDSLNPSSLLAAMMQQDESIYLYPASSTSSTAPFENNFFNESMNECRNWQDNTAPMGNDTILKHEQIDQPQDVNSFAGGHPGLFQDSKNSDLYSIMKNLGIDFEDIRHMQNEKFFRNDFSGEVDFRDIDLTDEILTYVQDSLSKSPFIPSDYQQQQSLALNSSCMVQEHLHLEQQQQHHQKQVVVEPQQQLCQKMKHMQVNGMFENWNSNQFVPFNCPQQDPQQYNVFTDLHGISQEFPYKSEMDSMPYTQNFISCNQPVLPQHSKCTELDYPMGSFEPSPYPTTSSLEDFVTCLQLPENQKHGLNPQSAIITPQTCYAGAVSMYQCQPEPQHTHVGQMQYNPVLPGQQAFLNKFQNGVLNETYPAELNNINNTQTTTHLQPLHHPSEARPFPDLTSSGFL
Source text: as §1
(§2) Gene reporter assays were performed in two different experimental layouts. In agonist mode, cells were treated with increasing concentrations of tested compounds, and the half-maximal effective concentrations (EC50) were calculated.

[3] = target: T1, aryl hydrocarbon receptor AhR; experiment: AhR gene reporter assay in AZ-AHR cells, antagonist mode (TCDD 5 nM); type: cell-based; details: 24 h, in the presence of TCDD 5 nM
Source text: as §1, §2

[4] = MTT cytotoxicity test in primary human hepatocytes; type: cell-based; details: primary human hepatocytes, read-out: viability, % of control value
Source text: as §1
The cells were treated for 24 h with (+)-KET, (−)-KET and commercial rac-KET (1 µM, 30 µM, 50 µM), and with TCDD (5 nM) and vehicle (DMSO; 0.1% V/V). […] In the cytotoxicity assay, we found all forms of KET highly toxic against human hepatocytes at the concentration 50 µM.

AhR = target: T2, AhR (Mus musculus, UniProt P30561); experiment: EMSA with nuclear extracts from Hepa-1c1c7 cells (AhR-ARNT-DRE complex); type: cell-based; details: Hepa-1c1c7 nuclear extracts, 50 µM, 2 h
T2 construct: endogenous in cells; host or cells: mouse hepatoma Hepa-1c1c7 cells (living cells treated 2 h, then nuclear extracts made)
Procedure: Electrophoretic mobility shift assay was performed in guinea pig cytosol and nuclear extract from mouse hepatoma cells. Hepa-1c1c7 cells were incubated for 2 h with tested compounds. Nuclear extracts procedure and EMSA analysis was performed as previously described (Soshilov & Denison; 2014). Guinea pig hepatic cytosol (8 mg/mL in HEDG) was incubated for 2 h in a room temperature water bath with tested compounds. An aliquot of the reaction was mixed with poly[dI•dC] and [^32P]-DRE (100.000 cpm), and AHR:DRE:[^32P]DRE complexes were resolved by gel retardation analysis, visualized by autoradiography and quantified by phosphorimager analysis (FujiFilm) of the dried gels.
We carried out the electrophoretic mobility shift assay (EMSA) to reveal whether effects of KET on AhR-CYP1A pathway involve transformation of AhR to DNA binding form, and whether these effects are enantiospecific. For this purpose, EMSA was performed in two experimental systems: (i) Hepatic guinea pig cytosol was treated for 2 hours with DMSO, 20 nM TCDD, (+)-KET, (−)-KET and commercial rac-KET (from Sigma) at 10 µM, 30 µM and 50 µM. All forms of KET transformed AhR to DNA binding form, but the activation was very weak and not statistically above background. There was a slightly stronger effect of (+)-KET and rac-KET as compared to (−)-KET, but the difference was not significant (Figure 4A). (ii) Since we obtained only weak signals in guinea pig liver cytosols, we also analyzed nuclear extracts from mouse hepatoma Hepa-1c1c7 cells treated for 2 hours with DMSO, TCDD (10 nM), (+)-KET (50 µM), (−)-KET (50 µM), commercial rac-KET (Sigma; 50 µM) or an equimolar mix of (+)/(−) enantiomers (50 µM total). […] The effects of (−)-KET were slightly stronger as compared to (+)-KET. […] In addition, we observed formation of the second band with lower molecular weight than AhR-ARNT-DRE, by purified KET enantiomers but not by TCDD and commercial KET.

AZ-GR cells = experiment: MTT cytotoxicity test in AZ-GR cells; type: cell-based, human; details: Homo sapiens; 24 h incubation; read-out: AZ-GR viability - MTT IC50
Source text: as §1
(§3) There is multiple evidence for the role of glucocorticoid receptor (GR) in regulation of AhR activity. […] Gene reporter assays were performed in agonist and antagonist mode (similarly as described in section 3.1.).

[5] = target: T3, glucocorticoid receptor (GR) (Homo sapiens, UniProt P04150); experiment: GR gene reporter assay in AZ-GR cells, agonist mode; type: cell-based
T3 sequence (P04150 1-777): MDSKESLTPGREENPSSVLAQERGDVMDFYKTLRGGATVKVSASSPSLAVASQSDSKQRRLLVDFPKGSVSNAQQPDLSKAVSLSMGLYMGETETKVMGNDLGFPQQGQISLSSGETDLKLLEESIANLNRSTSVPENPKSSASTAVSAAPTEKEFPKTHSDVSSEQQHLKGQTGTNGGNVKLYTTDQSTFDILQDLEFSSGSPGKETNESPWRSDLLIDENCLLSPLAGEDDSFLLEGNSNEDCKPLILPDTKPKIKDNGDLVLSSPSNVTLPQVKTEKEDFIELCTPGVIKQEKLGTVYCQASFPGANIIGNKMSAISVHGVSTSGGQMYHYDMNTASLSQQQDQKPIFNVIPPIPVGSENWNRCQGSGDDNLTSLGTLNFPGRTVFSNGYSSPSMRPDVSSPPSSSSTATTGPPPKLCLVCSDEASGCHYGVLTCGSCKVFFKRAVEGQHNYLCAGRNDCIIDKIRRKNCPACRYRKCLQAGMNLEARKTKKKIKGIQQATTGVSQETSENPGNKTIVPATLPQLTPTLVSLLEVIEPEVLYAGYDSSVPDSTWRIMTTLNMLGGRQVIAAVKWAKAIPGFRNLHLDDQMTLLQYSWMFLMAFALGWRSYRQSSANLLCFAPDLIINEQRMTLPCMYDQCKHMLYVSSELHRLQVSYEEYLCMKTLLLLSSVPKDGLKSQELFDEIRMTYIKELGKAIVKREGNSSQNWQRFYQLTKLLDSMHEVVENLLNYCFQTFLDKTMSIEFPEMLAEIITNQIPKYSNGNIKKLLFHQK
Source text: as §1, §3

[6] = target: T3, glucocorticoid receptor (GR); experiment: GR gene reporter assay in AZ-GR cells, antagonist mode (DEX 100 nM); type: cell-based; details: 24 h
Source text: as §1, §3

[7] = system: tyrosine aminotransferase (TAT) mRNA; experiment: TAT mRNA in HepG2 cells (qRT-PCR); type: cell-based, human; details: HepG2, 1, 30, 50 µM, 24 h
C. albicans 1 = experiment: MIC assessment, microdilution; type: cell-based; details: Candida albicans
Procedure: (§4) Antifungal activity was assessed using the standard microdilution method determining the minimum inhibitory concentrations (MICs) of the tested samples leading to inhibition of yeast growth. Disposable microtiter plates were used for the tests. The samples were diluted in brain heart infusion broth (HiMedia). […] C. albicans, C. krusei, C. tropicalis and C. parapsilosis. […] Subsequently, 100 µL were transferred into the first microplate well and serially diluted by a factor of 2. The prepared microplates were inoculated with a standard amount of the tested Candida spp. – the inoculum density in a well was equal to 10^5 CFU/mL. […] The minimum fungicidal concentration (MFC) is the minimum concentration of the sample required to kill the yeast after a defined period of incubation. The MFCs were determined by the inoculation method. With an applicator, 10 µL were transferred from the microplate wells with defined concentrations of the tested sample and inoculated onto Sabouraud agar (Trios). The MFC was determined as the lowest concentration that inhibited the visible growth of the used yeast. For growth curve assessment, the samples were serially diluted in 96-well microtiter plates. […] Absorbance (630 nm) was measured every hour during 24 hours and the obtained values were used to plot growth curves

C. albicans 978 = experiment: MIC assessment, microdilution; type: cell-based; details: Candida albicans
Procedure: as §4

C. krusei 094 = experiment: MIC assessment, microdilution; type: cell-based; details: Pichia kudriavzevii
Procedure: as §4

C. krusei 3 = experiment: MIC assessment, microdilution; type: cell-based; details: Pichia kudriavzevii
Procedure: as §4

C. parapsilosis 6 = experiment: MIC assessment, microdilution; type: cell-based; details: Lodderomyces parapsilosis
Procedure: as §4

C. tropicalis 5 = experiment: MIC assessment, microdilution; type: cell-based; details: Candida tropicalis
Procedure: as §4

T2 sequence (P30561 10-805 limits assumed): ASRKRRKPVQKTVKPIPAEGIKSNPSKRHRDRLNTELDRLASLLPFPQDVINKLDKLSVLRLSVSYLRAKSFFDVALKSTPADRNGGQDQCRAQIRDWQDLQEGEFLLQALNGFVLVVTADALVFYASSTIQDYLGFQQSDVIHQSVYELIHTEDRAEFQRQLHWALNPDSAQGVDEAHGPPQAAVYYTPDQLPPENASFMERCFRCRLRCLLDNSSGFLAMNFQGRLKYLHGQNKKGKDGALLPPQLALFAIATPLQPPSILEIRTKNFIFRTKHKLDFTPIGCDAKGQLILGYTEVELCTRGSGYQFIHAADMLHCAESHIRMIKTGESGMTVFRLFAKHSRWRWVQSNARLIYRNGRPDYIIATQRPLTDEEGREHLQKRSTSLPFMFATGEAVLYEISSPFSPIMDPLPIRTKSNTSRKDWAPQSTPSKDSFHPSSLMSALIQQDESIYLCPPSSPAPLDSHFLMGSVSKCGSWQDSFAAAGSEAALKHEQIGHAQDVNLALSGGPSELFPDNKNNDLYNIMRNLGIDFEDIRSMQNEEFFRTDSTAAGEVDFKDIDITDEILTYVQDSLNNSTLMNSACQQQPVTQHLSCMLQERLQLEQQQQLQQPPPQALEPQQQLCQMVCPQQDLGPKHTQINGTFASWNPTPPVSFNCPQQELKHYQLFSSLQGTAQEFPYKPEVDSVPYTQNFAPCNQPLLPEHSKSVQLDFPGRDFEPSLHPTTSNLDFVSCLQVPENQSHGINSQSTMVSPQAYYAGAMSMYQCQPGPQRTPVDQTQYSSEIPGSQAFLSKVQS
T2 sequence (P53762 whole entry partner): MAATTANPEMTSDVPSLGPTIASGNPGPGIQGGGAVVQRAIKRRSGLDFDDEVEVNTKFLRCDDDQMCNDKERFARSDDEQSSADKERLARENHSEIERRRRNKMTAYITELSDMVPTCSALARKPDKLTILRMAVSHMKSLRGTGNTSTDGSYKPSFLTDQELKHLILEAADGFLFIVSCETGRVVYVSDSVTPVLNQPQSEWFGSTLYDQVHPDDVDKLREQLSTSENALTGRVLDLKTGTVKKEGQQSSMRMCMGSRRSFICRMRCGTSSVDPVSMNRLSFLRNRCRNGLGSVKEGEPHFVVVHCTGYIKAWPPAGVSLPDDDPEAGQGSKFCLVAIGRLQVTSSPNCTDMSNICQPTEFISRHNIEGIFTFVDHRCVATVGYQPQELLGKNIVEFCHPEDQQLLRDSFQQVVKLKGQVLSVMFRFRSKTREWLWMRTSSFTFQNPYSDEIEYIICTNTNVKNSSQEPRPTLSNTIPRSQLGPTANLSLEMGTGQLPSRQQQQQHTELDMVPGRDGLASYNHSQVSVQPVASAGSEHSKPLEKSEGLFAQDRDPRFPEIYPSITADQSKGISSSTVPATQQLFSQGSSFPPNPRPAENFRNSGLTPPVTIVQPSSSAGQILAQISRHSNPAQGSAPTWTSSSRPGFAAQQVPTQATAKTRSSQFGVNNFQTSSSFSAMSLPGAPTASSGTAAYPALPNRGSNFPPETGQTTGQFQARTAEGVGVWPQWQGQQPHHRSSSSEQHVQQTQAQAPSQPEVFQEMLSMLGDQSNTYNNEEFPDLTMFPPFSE

## CC(=O)N1CCN(c2ccc(OC[C@@H]3CO[C@@](Cn4ccnc4)(c4ccc(Cl)cc4Cl)O3)cc2)CC1 [(−)-KET, (2S,4R)-(−)-KET]
[1]
  IC50 at 24 h: 72.7 ± 27.3 µM
[2]
  AZ-AHR gene reporter - agonist efficacy: 5,2 ± 3,2%
[2]; 24 h, agonist mode
  EC50: 2.2 µM
[3]
  IC50: 17.5 ± 1.7 µM
[4]
  viability at 24 h, 50 µM: 37%
AhR
  transformation of AhR to DNA binding form (in words): only weakly transformed
AZ-GR cells
  IC50: 71.6 ± 27.5 µM
[5]; up to / at 100 µM, 24 h
  increase of luciferase activity, agonist mode: did not induce luciferase activity
[6]; in the presence of DEX 100 nM
  IC50: 26.7 ± 3.7 µM
[7]
  TAT mRNA induction (in words): strong, concentration-dependent induction

## C[C@@H]1C[C@H]2[C@@H]3CCC4=CC(=O)C=C[C@]4(C)[C@@]3(F)[C@@H](O)C[C@]2(C)[C@@]1(O)C(=O)CO [DEX, dexamethasone]
[5]; 100 nM DEX, four passages
  average induction of GR-dependent luciferase activity: 70 fold

## CC(=O)N1CCN(c2ccc(OCC3COC(Cn4ccnc4)(c4ccc(Cl)cc4Cl)O3)cc2)CC1 (racemic) [racemic KET obtained by mixing pure (+)-KET and pure (−)-KET in ratio 1∶1]
AhR
  transformation of AhR to DNA binding form (in words): much weaker and comparable with individual enantiomers
[6]; final concentration 50 µM, DEX 100 nM
  antagonist effect in titration experiment (in words): much stronger as compared to commercial rac-KET

## CC[C@@H]([C@H](C)O)n1ncn(-c2ccc(N3CCN(c4ccc(OC[C@@H]5CO[C@@](Cn6cncn6)(c6ccc(F)cc6F)C5)cc4)CC3)cc2)c1=O [Posaconazole, posaconazole]
C. albicans 1
  MIC: 0.094 µg/mL (≈ 0.134 µM)
C. albicans 978
  MIC: 0.064 µg/mL (≈ 0.0913 µM)
C. krusei 094
  MIC: 0.25 µg/mL (≈ 0.357 µM)
C. krusei 3
  MIC: 0.19 µg/mL (≈ 0.271 µM)
C. parapsilosis 6
  MIC: 0.032 µg/mL (≈ 0.0457 µM)
C. tropicalis 5
  MIC: 0.19 µg/mL (≈ 0.271 µM)

## OC(Cn1cncn1)(Cn1cncn1)c1ccc(F)cc1F [Fluconazole, fluconazole]
C. albicans 1
  MIC: 0.38 µg/mL (≈ 1.24 µM)
C. albicans 978
  MIC: 1.5 µg/mL (≈ 4.9 µM)
C. krusei 094
  MIC: 32 µg/mL (≈ 104 µM)
C. krusei 3
  MIC: 48 µg/mL (≈ 157 µM)
C. parapsilosis 6
  MIC: 2 µg/mL (≈ 6.53 µM)
C. tropicalis 5
  MIC: 6 µg/mL (≈ 19.6 µM)

## C[C@@H](c1ncncc1F)[C@](O)(Cn1cncn1)c1ccc(F)cc1F [Voriconazole, voriconazole]
C. albicans 1
  MIC: 0.016 µg/mL (≈ 0.0458 µM)
C. albicans 978
  MIC: 0.016 µg/mL (≈ 0.0458 µM)
C. krusei 094
  MIC: 0.19 µg/mL (≈ 0.544 µM)
C. krusei 3
  MIC: 0.19 µg/mL (≈ 0.544 µM)
C. parapsilosis 6
  MIC: 0.023 µg/mL (≈ 0.0658 µM)
C. tropicalis 5
  MIC: 0.19 µg/mL (≈ 0.544 µM)
